Read-outs that look alike come from different tables or passages of the source.
Legend:
[1] = Bioavailability: plasma concentration after oral administration to rats; format: in vivo, male Sprague-Dawley rats; details: rat; for Cmax / Tmax: male, Sprague-Dawley, plasma, vehicle Mix; for Cmax / Tmax / AUC / delivery of PL-100 and PL-337 compared to non-aqueous formulations of PL-100 and PL-337: 50 mg/Kg po; for delivery of PL-100 and PL-337 compared to non-aqueous formulations of PL-100 and PL-337: aqueous dosing; for administered compound detected in the blood samples: po, delivered as aqueous solutions, suggests rapid metabolism to parent drugs
Description: To assess the extent of in vivo cleavage of the phosphate group from the putative compounds, PL-100, PL-462 (based on PL-100), PL-337 and PL-515 (based on PL-337) compounds were administered po (50 mg/kg) to male Sprague-Dawley rats and their plasma concentration measured at different time intervals post-administration. All test articles (PL-100, PL-462, PL-337 and PL-515) were prepared in different vehicle at the final concentration of 25 mg/mL. The vehicle composition is as follows: (1) 20% ethanol; 50% propylene glycol; 0.05% w/v Tween 20 and water (Mix); (2) PBS buffer (PBS). Test articles were administered to male Sprague-Dawley rats at a single oral dose of 50 mg/kg. Each article was tested in three rats. Blood samples (0.2-0.3 mL) were collected at the post-dose time of 10, 20, 40, 60,120, 180 and 360 minutes. The harvested blood was centrifuged to isolate plasma. The resulting plasma was separated and stored at -70°C. Plasma samples together with standards and quality control samples were treated to precipitate proteins, then analyzed by HPLC-MS, for the presence of PL-462, PL-100, PL-515 and PL-337.

[2] = Partition coefficient (LogP), octanol / phosphate buffer pH 7.4; format: physicochemical; details: octanol and phosphate buffer pH 7.4 (0.04 M KHPO4), LC-MS detection
Excerpt: The concentration of the compounds in the phases was detected by LC-MS.

[3] = vehicle Mix (20% ethanol; 50% propylene glycol; 0.05% w/v Tween 20 and water)
[4] = vehicle PBS, parent drug (PL-100 or PL-337) detected in plasma

SMILES | Cmax [1] [nM] | Tmax [1] [min] | AUC [1, 3] [µg/hr*ml] | AUC [1, 4] | delivery of PL-100 and PL-337 compared to non-aqueous formulations of PL-100 and PL-337 [1] | administered compound detected in the blood samples [1] | logP [2] | logP ([2]; read-out: LogP)
COC(=O)N[C@H](C(=O)NCCCC[C@@H](CO)N(CC(C)C)S(=O)(=O)c1ccc(N)c(F)c1)C(c1ccccc1)c1ccccc1 [PL-337, (1-{5-[(4-amino-3-fluoro-benzenesulfonyl)-isobutyl-amino]-6-hydroxy-hexylcarbamoyl}-2,2-diphenyl-ethyl)-carbamic acid methyl ester] | 681 ± 131 | 60 | 1.180 ± 0.196 | – | – | – | – | –
COC(=O)N[C@H](C(=O)NCCCC[C@@H](COP(=O)(O)O)N(CC(C)C)S(=O)(=O)c1ccc(N)cc1)C(c1ccccc1)c1ccccc1.[Na] [PL-462, (1S,5S)-(1-{5-[(4-amino-benzenesulfonyl)-isobutyl-amino]-6-phosphonooxy-hexylcarbamoyl}-2,2-diphenyl-ethyl)-carbamic acid methyl ester sodium salt] | – | – | – | 0.816 ± 0.295 (PL-100, detected) µg/hr*ml | equivalent to slightly superior | None | -1.2 | –
COC(=O)N[C@H](C(=O)NCCCC[C@@H](COP(=O)(O)O)N(CC(C)C)S(=O)(=O)c1ccc(N)cc1)C(c1ccccc1)c1ccccc1 [PL-461, (1S,5S)-(1-{5-[(4-amino-benzenesulfonyl)-isobutyl-amino]-6-phosphonooxy-hexylcarbamoyl}-2,2-diphenyl-ethyl)-carbamic acid methyl ester] | – | – | – | – | – | – | – | -1.2
COC(=O)N[C@H](C(=O)NCCCC[C@@H](CO)N(CC(C)C)S(=O)(=O)c1ccc(N)cc1)C(c1ccccc1)c1ccccc1 [PL-100, (1S,5S)-(1-{5-[(4-amino-benzenesulfonyl)-isobutyl-amino]-6-hydroxy-hexylcarbamoyl}-2,2-diphenyl-ethyl)-carbamic acid methyl ester] | 498 ± 203 | 40 | 0.675 ± 0.171 | – | – | – | – | 3.6
COC(=O)N[C@H](C(=O)NCCCC[C@@H](COP(=O)(O)O)N(CC(C)C)S(=O)(=O)c1ccc(N)c(F)c1)C(c1ccccc1)c1ccccc1 [PL-515, (1S,5S)-(1-{5-[(4-amino-3-fluoro-benzenesulfonyl)-isobutyl-amino]-6-phosphonooxy-hexylcarbamoyl}-2,2-diphenyl-ethyl)-carbamic acid methyl ester] | – | – | – | 1.075 ± 0.625 (PL-337, detected) µg/hr*ml | equivalent to slightly superior | None | – | -0.75
